These results are taken from US20130011845A1, “MICRORNA REGULATING THE INSULIN SIGNALING PATHWAY, AND METHOD FOR SCREENING MATERIAL FOR CONTROLLING THE ACTION OF A TARGET THEREOF” (SNU R & DB Foundation, priority 2009, published 2013).

The subject of one series is FOXO. In words: FOXO luciferase reporter (pFK1tk-luc) assay in Hep3B cells. The series is classed as cell-based, human. An excerpt:
The inventors analyzed the effect of miR-200 miRNAs on the downstream transducers of Akt (see FIGS. 44 to 47). Because Akt represses FOXO activity, the inventors used a luciferase reporter plasmid (pFK1tk-luc) (Biggs, W H et al., 1999, Proc Natl Acad Sci USA 96, 7421-7426) containing eight FOXO-binding sites to determine the level of FOXO activity in cultured cells. Specifically, Hep3B cells were transfected with synthesized siGFP, miR-141, miR-200a, miR-200b, miR-200c, miR-429 or siFOG2 together with pFK1tk-luc vector, and then luciferase activity was measured in the same manner as described Example 8-2. Also, Hep3B cells were transfected with luciferase, or oligonucleotides having complementary sequence to miR-141, miR-200a, miR-200b, miR-200c or miR-429 together with pFK1tk-luc vector. Then, the luciferase activity was measured in the same manner as described above. Further, Hep3B cell lines were transfected with pCK-flag (empty vector) and pCK-FOG2 produced in Example 16-1, and the luciferase activity was measured in the same manner as described above. […] Further, treating the cells with miR-200 inhibitors elevated FOXO activity (see FIG. 46).

Another series deals with FOG2 3′UTR. The series can be described thus: dual-luciferase 3′UTR reporter assay, pAC-FOG2. The series is classed as cell-based. Particulars: luciferase reporter with FOG2 3′UTR, human Hela cell lines; average of at least two independent experiments. The method, then:
(§1) In order to determine whether the target genes identified in Example 7 are in actuality targets of miR-8 and miR-200 family miRNAs, the inventors performed cloning. In other words, […] containing the miRNA target sites. Specifically, in order to obtain cDNAs of respective target genes, from drosophila S2 cell lines or human Hela cell lines, total RNA was extracted by using RNeasy mini kit (QIAGEN, US). 1 μg of total RNA and 1 μl of Oligo-dT (Invitrogen, US) were charged with up to 50 μl of distilled water, and placed into SuperScript First-Strand Synthesis System (Invitrogen, US), followed by RT-PCR reaction. Through the reaction at 65° C. for 6 min, at 4° C. for 5 min, at 42° C. for 60 min, at 95° C. for 5 min, and at 4° C. for 5 min, cDNA was synthesized. By using the cDNA (3˜5 μg) as template, and using a primer pair on respective genes noted in Table 3 and PCR Mastermix (Promega, US), PCR was performed on 3′UTR of ush, Lap1, CG8445, dbo, Lar, Ced-12, CG12333, cbt, FOG2, SEPT7, RIN2, SHC1, HOXB5, LF11, TCF7L1, ERBB21P, ELMO2, BAP1, WDR37, KLHL20, PTPRD, RASSF2 and VAC14 from among the target genes selected in Example 7. Herein, PCRP on atro as a drosophila control gene was also performed. After the reaction was completed, the PCR product on each gene's 3′UTR region was cleaved by each of the following restriction enzymes:
(§2) Then, it was cloned into pAC5.1 luciferase vector (a kind gift of Elisa Izaurralde) cleaved by the same restriction enzymes so as to produce a reporter plasmid having a miR-8 or miR-200 family target sequence in luciferase gene's 3′UTR sequence.
(§3) Reporter plasmids and renilla luciferase expression vectors (Promega, US), as noted in Table 4, and miRNAs of miR-200 family of miR-141, miR-200a (hsa-miR-200a, SEQ ID: 87: 5′-[…]-3′), miR-200b, miR-200c (has-miR-200c, SEQ ID: 88: 5′-[…]-3′) and miR-429, and miR-8 (dme-miR-8, SEQ ID: 89: 5′-[…]-3′) were bought from Samchonri and cotransfected into drosophila S2 cell lines or human Hela cell lines. Then, the activities of luciferase were measured through dual-luciferase assay (Promega, US) by a luminometer (Biorad). Then, 7 gene pairs that respond both to miR-8 and to mir-200 family miRNAs in Drosophila and human cells, respectively were identified (see FIG. 15).
For orientation: In a reporter assay the amount or activity of a reporter protein is the signal.

The subject of a further series is RIN2 3′UTR. In words: dual-luciferase 3′UTR reporter assay, pAC-RIN2. The series is classed as cell-based. Particulars: luciferase reporter with RIN2 3′UTR, human Hela cell lines; average of at least two independent experiments. As to the method: as §1, §2, §3
For another series, the system named is RASSF2 3′UTR. In words: dual-luciferase 3′UTR reporter assay, pAC-RASSF2. Particulars: luciferase reporter with RASSF2 3′UTR, human Hela cell lines; average of at least two independent experiments. The series is classed as cell-based. As to the method:
as §1, §2, §3

The subject of the next series is HOXB5 3′UTR. In words: dual-luciferase 3′UTR reporter assay, pAC-HOXB5. In kind it is cell-based. To be noted: luciferase reporter with HOXB5 3′UTR, human Hela cell lines; average of at least two independent experiments. As to the method: as §1, §2, §3
A further series has as its system VAC14 3′UTR. In words: dual-luciferase 3′UTR reporter assay, pAC-VAC14. In kind it is cell-based. Particulars: luciferase reporter with VAC14 3′UTR, human Hela cell lines; average of at least two independent experiments. As to the method: as §1, §2, §3
The subject of another series is ELMO2 3′UTR. The series can be described thus: dual-luciferase 3′UTR reporter assay, pAC-ELMO2. The series is classed as cell-based. To be noted: luciferase reporter with ELMO2 3′UTR, human Hela cell lines; average of at least two independent experiments. As to the method: as §1, §2, §3

“5′-UAACACUGUCUGGUAACGAUGU-3′ (listed as RNA, chemistry not given here) [miR-200a]”: the “FOXO activity (activity of luciferase, pFK1tk-luc)” value (shortened to “FOXO activity”) in the series on FOXO was “significantly repressed”. In addition, the “Represion fold, FOG2” value in the series with FOG2 3′UTR turned out to be 0.64 fold. Also, the “Represion fold, RIN2” value in the series with RIN2 3′UTR was 2.49 fold. Besides, the “Represion fold, RASSF2” value in the series on RASSF2 3′UTR is given as 1.36 fold. Moreover, the “Represion fold, HOXB5” value in the series with HOXB5 3′UTR came to 1.16 fold. The “Represion fold, VAC14” value with VAC14 3′UTR came out at 1.19 fold. In the series on ELMO2 3′UTR, the “Represion fold, ELMO2” value turned out to be 1.22 fold.

As to “5′-UAAUACUGUCUGGUAAAACCGU-3′ (listed as RNA, chemistry not given here) [miR-429]”, the “FOXO activity” value in the series on FOXO was “significantly repressed”. Besides, the “Represion fold, FOG2” value in the series on FOG2 3′UTR was 0.47 fold. The “Represion fold, RIN2” value in the series with RIN2 3′UTR was found to be 1.41 fold. In addition, the “Represion fold, RASSF2” value in the series on RASSF2 3′UTR stood at 1.01 fold. Besides, in the series with HOXB5 3′UTR, the “Represion fold, HOXB5” value came to 0.72 fold. The “Represion fold, VAC14” value with VAC14 3′UTR was found to be 1.17 fold. In the series on ELMO2 3′UTR, the “Represion fold, ELMO2” value is reported as 0.89 fold.

Consider “5′-UAAUACUGCCUGGUAAUGAUGA-3′ (listed as RNA, chemistry not given here) [miR-200b]”, for which the “FOXO activity” value with FOXO is “significantly repressed”. Besides, the “Represion fold, FOG2” value with FOG2 3′UTR was 0.37 fold. Further, in the series on RIN2 3′UTR, the “Represion fold, RIN2” value is recorded as 1.91 fold. Moreover, the “Represion fold, RASSF2” value in the series with RASSF2 3′UTR worked out at 1.28 fold. In the series on HOXB5 3′UTR, the “Represion fold, HOXB5” value was found to be 0.73 fold. Also, the “Represion fold, VAC14” value in the series on VAC14 3′UTR worked out at 1.20 fold. For the same substance, the “Represion fold, ELMO2” value in the series on ELMO2 3′UTR came to 1.04 fold.

As to “5′-UAACACUGUCUGGUAAAGAUGG-3′ (listed as RNA, chemistry not given here) [miR-141]”, the “FOXO activity” value in the series on FOXO is “significantly repressed”. Also, the “Represion fold, FOG2” value with FOG2 3′UTR is given as 0.59 fold. The “Represion fold, RIN2” value in the series with RIN2 3′UTR was determined as 1.10 fold. In addition, the “Represion fold, RASSF2” value with RASSF2 3′UTR was determined as 0.90 fold. For the same substance, the “Represion fold, HOXB5” value in the series on HOXB5 3′UTR was determined as 0.92 fold. Further, the “Represion fold, VAC14” value in the series on VAC14 3′UTR stood at 0.99 fold. Besides, in the series on ELMO2 3′UTR, the “Represion fold, ELMO2” value came to 0.73 fold.
